Assay results published in patent US5626883A, “Ascorbic acid compositions providing enhanced human immune system activity” (priority 1994, dated 1997).

Columns and labels:
K562 tumor target cells [1] = test: NK cell cytotoxic activity (4-hr 51Cr-release assay) before and after oral administration to healthy subjects, Example 1; assay type: in vivo, human
Description: This example compares the effect of ascorbic acid and the formulation of the present invention on NK cell activity, NK cell population, and peripheral blood leukocyte (PBL) uptake.
(§1) Lymphocytes were prepared from fresh heparinized peripheral venous blood by Ficoll-Hypaque density gradient centrifugation (Litton Bionetics, Rockville, Md.). Cells were washed three times with Hanks' balanced salt solution (HBSS), and resuspended to a concentration of 10×10^6 cells/ml in a complete medium (CM), that consisted of RPMI-1640 supplemented with 10% fetal calf serum and 1% antibiotics (100 U penicillin and 100 μg/ml streptomycin) and within an hour of isolation cells were used for different assays.
(§2) Chromium-release Assay for measuring NK cell activity:
(§3) A standard 4-hr ^51 Cr-release assay was employed. Briefly, 1×10^4 ^51 Cr-labelled K562 tumor target cells in
(§4) 0.1 ml CM were added to different wells of a microtiter plate. Effector cells were then pipetted into quadruplicate wells to give effector: target (E:T) ratios of 6:1, 12:1, 25:1 and 50:1. After a 4-hr incubation at 37° C., the microtiter plates were centrifuged at 1400 rpm for 5 min and 0.1 ml of supernatant from each well was collected and counted in a gamma counter. The percentages of isotope released were calculated by the following formula: [formula]
(§5) Total release was measured by adding […] Triton X-100 to designated wells. Lytic units (LU) were calculated from effector titration curves. One LU was defined as the number of effector cells required to achieve 20% lysis.
In FIG. 1A the NK cell activity is represented in lytic units (LU) on the vertical axis with time being represented in hours on the horizontal axis.
In FIG. 1B, the hollow bars represent the subject's NK cell activity before administration of either ascorbic acid alone or the formulation of the present invention.

clinical [2] = details: human, in vivo, 60 mg/kg
Description: as §1

[3] = system: peripheral blood leukocyte (PBL); test: clinical; details: human, in vivo, 0 min
Description: as §1

NK cell population = NK cell population and sub-populations by flow cytometry, Example 1; assay type: in vivo, human; details: 0 and 24 hours post treatment; Anti-CD56 and Anti-CD3
Description: NK cell subset enumeration was carried out in ascorbate-treated and non-treated cell populations. A single laser flow cytometer (Epics Profile: Coulter Epics, Inc., Hialeah, Fla.), which discriminates forward and right-angle light scatter, as well as two colors, was used with an appropriate software package (Quad Stat: Coulter). Mononuclear cell populations were determined by two-color direct immunofluorescence, by using a whole-blood staining technique with the appropriate monoclonal antibody and flow cytometry. […]
lymphocyte markers, bit maps were set on the lymphocyte population of the forward-angle light scatter versus a 90° light scatter histogram. The percentage of positively stained cells for each marker pair, as well as the percentage of doubly stained cells, was determined. Estimates of the absolute numbers of lymphocyte positive for the respective surface markers were determined by multiplying peripheral lymphocyte cell count by the percentage of cells positive for each surface marker.
Total NK cell population and its sub-populations were also examined in this example. The total NK cell population and its sub-populations were determined both post-treatment with ascorbic acid alone and post-treatmentwith the formulation of the present invention by flow cytometry, using Anti-CD56 and Anti-CD3 monoclonal antibodies, respectively.

K562 tumor target cells [4] = test: NK cell activity with repeated administration every four hours, Example 2; assay type: in vivo, human; details: 15 mg/kg ascorbic acid or biologically equivalent amount every four hours, twenty-four hours
Description: as §2, §3, §4, §5

glutathione = details: 500 mg/day; cited from earlier work
[5] = system: skin tumors and estrogen-induced renal tumors; details: in vivo; cited from earlier work
[6] = system: breast and gastric cancer; details: cited from earlier work
clinical [7] = details: human, plasma, 60 mg/kg
Description: Twenty-two healthy subjects were randomly selected for this example. The subjects ranged in age from 20 to 24 years, with a mean of 22 years. The subjects had not ingested any medications for at least two weeks before participation in the study.
Clearance and the uptake of ascorbic acid was measured in the plasma and mononuclear cell, respectively.
Briefly described, 5×10^6 cells were suspended in 0.2 ml of PBS, sonicated for 30 seconds, and 1 ml of 5% trichloroacetic acid (TCA) was added. The mixture was centrifuged to remove the precipitates and the supernatant was used to measure the level of ascorbic acid. From the mixture, 1.2 ml of this supernatant or 0.5 ml plasma was mixed with 0.4 ml of Dinitrophenyl-hydrazine-Thiourea-Copper (DCT) reagent, incubated at 37° C. for 3 hours, then transferred to an ice-water bath for 10 minutes. Then 2 ml of cold 12M H2 SO4 was added and the mixture was kept at room temperature for 20 min.

Q: What does the source list for `O=C1O[C@H]([C@@H](O)CO)C(O)=C1O` [ascorbic acid, 3-oxo-1-gulofuranolactone]?
A: NK cell activity (K562 tumor target cells [1]; 60 mg/kg ascorbic acid, twenty-four hours post-administration, FIG. 1A): 90 LU; NK cell activity (K562 tumor target cells [1]; 60 mg/kg, forty-eight hours, FIG. 1A): declined to near pre-administration levels; NK cell activity change (K562 tumor target cells [1]; 60 mg/kg, one to two hours after administration, FIG. 1A): transitory decrease in NK cell activity; time of recovery of NK cell activity to pre-administration levels (K562 tumor target cells [1]; 60 mg/kg, post-administration, FIG. 1A): about four; period of inhibition of NK cell activity (K562 tumor target cells [1]; early transient phase, followed by enhancement): two to four; overall suppression of NK cell activity (summary) (K562 tumor target cells [1]; shortly after administration): transient suppression or inhibition of NK cell activity; suppression of NK cell activity (K562 tumor target cells [1]; zero to four hours post-administration, FIG. 1A): transient suppression of NK cell activity; concentration at 1 h (clinical [2]): 64 ng/mL; concentration at 2 h (clinical [2]): 101 ng/mL; concentration at 4 h (clinical [2]): 95 ng/mL; concentration at 8 h (clinical [2]): 79 ng/mL; concentration at 24 h (clinical [2]): 74 ng/mL; concentration at 48 h (clinical [2]): 49 ng/mL; mean (M±SD) uptake of ascorbic acid by 5×10^6 white blood cells [3]: 5.1 μg/dl; percentages of total NK cell population, or its sub-populations (NK cell population): no significant effect; NK cell activity (K562 tumor target cells [4]): repeated suppression of NK cell activity; plasma concentrations of glutathione (glutathione): increases plasma concentrations of glutathione; tumor regression [5]: causes regression of skin tumors and estrogen-induced renal tumors in vivo; antitumor activity [6]: demonstrates antitumor activity against breast and gastric cancer; concentration at 1 h (clinical [7]): ~42000 ng/mL
